Laboratory results as given in PMC9137037 (Frontiers in Oncology, 2022).
Where two headings read alike, the source gives them in different places. Where no end group is shown, it is not given here.

How the values were obtained:
[1] = Toxicokinetics of APi2568 in monkey plasma (UHPLC-MS/MS); assay type: in vivo, cynomolgus monkey; conditions: for Cmax: UHPLC-MS/MS; for accumulation ratio (RA): TK profiles on days 1 and 43
Protocol: The non-human primate studies were carried out by the Charles River Laboratories (Ashland, OH USA). All the cynomolgus monkeys (Macaca fascicularis of Chinese origin) were obtained from Charles River Laboratories (Houston, TX, USA). In brief, the animals were approximately 2–4 years old and at the body weight between 2.2 and 3.1 kg at the initial dosing. The animals were kept at the temperature between 19°C and 24°C, humidity 30%–70%, and with 12 h light and 12 h dark light cycle. The Good manufacturing practice (GMP)-manufactured vaccine was used in the non-human primate study. […] Similar to mouse and dog dosing preparation, after the emulsion was prepared, a drop test was performed on each time of dosing to confirm that the emulsion had been prepared properly. […] The dose volume was split approximately equally across two different sites; 0.5 ml of the dose was intramuscularly (IM) injected into the right posterior lateral thigh, the left dosing was injected into the left site. All the animals’ body weights were monitored weekly after receiving. After each immunization, the animal body temperature was tested 6 and 24 h post each immunization. […] The animal bleed were collected before each time of immunization to monitor the antibody titers. There were two sets of non-human primate studies conducted. The first set of monkey study No.00213515 had 24 monkeys, 12 males, and 12 females divided into 4 groups: vehicle control, low dose 0.5 mg, medium dose 2 mg, and high dose 5 mg. There were 16 monkeys (8 males and 8 females) in the second set of monkey study No. 00213519. The monkeys in the four groups were vaccinated as follows: vehicle control, low dose 25 μg, medium dose 100 μg, and high dose 250 μg.
For the determination of TK parameters, blood samples were collected at various times after dosing analyzed using a validated UHPLC-MS/MS (ultra-high-performance liquid chromatography with tandem mass spectrometry) method, for the quantification of APi2568 in monkey plasma.

[2] = test system: rhPD-L1; conditions: surface plasmon resonance; cited from earlier work
Protocol: (§1) The PD-1 amino acids 92-110 (^92[…]^101[…]^110) chosen for evaluation were selected based on the crystal structure of PD-1:PD-L1. This PD-1 sequence was synthesized as a chimeric construct with a promiscuous T-cell helper epitope derived from the measles virus fusion protein (MVF, amino acids 288-302). The specificity of the selected PD-1 peptide was determined by surface plasmon resonance spectroscopy.

[3] = test system: nivolumab; conditions: surface plasmon resonance; cited from earlier work
Protocol: as §1

[4] = female, 2 mg/dose IM as PD1-Vaxx, day 43, mean
[5] = female, 5 mg/dose IM as PD1-Vaxx, day 1
[6] = female, 5 mg/dose IM as PD1-Vaxx, day 43, mean
[7] = male, 0.5 mg/dose IM as PD1-Vaxx, day 43, mean
[8] = male, 2 mg/dose IM as PD1-Vaxx, day 43, mean
[9] = male, 5 mg/dose IM as PD1-Vaxx, day 1
[10] = male, 5 mg/dose IM as PD1-Vaxx, day 43, mean

Sequence: KLLSLIKGVIVHRLEGVEGPSLGAISLAPKAQIKESLRAEL [MVF-PD-1(92-110)]
- plasma concentrations relative to the LLOQ ([1]; day 43, 0.5 mg/dose group (both sexes) and 2 mg/dose female monkeys): ≤ 6 fold
- T1/2 mean value ([1]; day 43, 2 and 5 mg/dose male monkeys and a single 5 mg/dose female monkey): approximately 13 h
- Cmax/D ([1]; female, 0.5 mg/dose IM as PD1-Vaxx, day 43, mean): 17.6 (ng/ml)/(mg/dose)
- AUC(0-t)/D [1, 4]: 47.3 (ngh/ml)/(mg/dose)
- Cmax/D [1, 4]: 6.92 (ng/ml)/(mg/dose)
- Tlast [1, 4]: 8 h
- AUC(0-t)/D [1, 5]: 3.79 (ngh/ml)/(mg/dose)
- Cmax/D [1, 5]: 0.954 (ng/ml)/(mg/dose)
- Tlast [1, 5]: 4 h
- AUC(0-t) ([1]; female, 5 mg/dose IM as PD1-Vaxx, day 1, AUC calculable in 1 monkey/sex): 18.9 ng·h/mL
- T1/2 ([1]; female, 5 mg/dose IM as PD1-Vaxx, day 43, calculable for a single female monkey): 19.6 h
- AUC(0-t)/D [1, 6]: 266 (ngh/ml)/(mg/dose)
- Cmax/D [1, 6]: 31.9 (ng/ml)/(mg/dose)
- Tlast [1, 6]: 34 h
- Tmax [1, 6]: 1 h
- Cmax ([1]; female, cynomolgus monkey, plasma, im, 0.5 mg/dose, female, 0.5 mg/dose IM as PD1-Vaxx, day 43, plasma, mean (generally n = 3)): 8.81 ng/mL
- Tmax ([1]; female, cynomolgus monkey, plasma, im, 0.5 mg/dose, read-out: Tmax): 2 h
- AUC(0-t) ([1]; female, cynomolgus monkey, plasma, im, 2 mg/dose, female, 2 mg/dose IM as PD1-Vaxx, day 43, mean, one female had significantly lower exposure, read-out: AUC(0-t)): 94.5 ng·h/mL
- Cmax ([1]; female, cynomolgus monkey, plasma, im, 2 mg/dose, female, 2 mg/dose IM as PD1-Vaxx, day 43, plasma, mean (generally n = 3)): 13.8 ng/mL
- Tmax ([1]; female, cynomolgus monkey, plasma, im, 2 mg/dose, read-out: Tmax): 4 h
- Cmax ([1]; female, cynomolgus monkey, plasma, im, 5 mg/dose, female, 5 mg/dose IM as PD1-Vaxx, day 1, plasma, mean as printed): 4.77 ng/mL
- AUC(0-t) ([1]; female, cynomolgus monkey, plasma, im, 5 mg/dose, female, 5 mg/dose IM as PD1-Vaxx, day 43, mean, read-out: AUC(0-t)): 1330 ng·h/mL
- Cmax ([1]; female, cynomolgus monkey, plasma, im, 5 mg/dose, female, 5 mg/dose IM as PD1-Vaxx, day 43, plasma, mean (generally n = 3)): 160 ng/mL
- Tmax ([1]; female, cynomolgus monkey, plasma, im, 5 mg/dose, read-out: Tmax): 1 h
- AUC(0-t)/D [1, 7]: 125 (ngh/ml)/(mg/dose)
- Tlast [1, 7]: 8 h
- AUC(0-t)/D [1, 8]: 247 (ngh/ml)/(mg/dose)
- Tlast [1, 8]: 24 h
- AUC(0-t)/D [1, 9]: 30.1 (ngh/ml)/(mg/dose)
- Cmax/D [1, 9]: 2.01 (ng/ml)/(mg/dose)
- Tlast [1, 9]: 24 h
- AUC(0-t)/D [1, 10]: 693 (ngh/ml)/(mg/dose)
- Cmax/D [1, 10]: 40.5 (ng/ml)/(mg/dose)
- Tlast [1, 10]: 48 h
- Tmax [1, 10]: 1 h
- AUC(0-t) ([1]; male, cynomolgus monkey, plasma, im, 0.5 mg/dose, male, 0.5 mg/dose IM as PD1-Vaxx, day 43, mean, read-out: AUC(0-t)): 62.3 ng·h/mL
- Tmax ([1]; male, cynomolgus monkey, plasma, im, 0.5 mg/dose, read-out: Tmax): 1 h
- half-life ([1]; male, cynomolgus monkey, plasma, im, 2 mg/dose): 13.1 h
- AUC(0-t) ([1]; male, cynomolgus monkey, plasma, im, 2 mg/dose, male, 2 mg/dose IM as PD1-Vaxx, day 43, mean, read-out: AUC(0-t)): 494 ng·h/mL
- Tmax ([1]; male, cynomolgus monkey, plasma, im, 2 mg/dose, read-out: Tmax): 1 h
- half-life ([1]; male, cynomolgus monkey, plasma, im, 5 mg/dose): 12.7 h
- AUC(0-t) ([1]; male, cynomolgus monkey, plasma, im, 5 mg/dose, male, 5 mg/dose IM as PD1-Vaxx, day 1, AUC calculable in 1 monkey/sex, read-out: AUC(0-t)): 151 ng·h/mL
- Cmax ([1]; male, cynomolgus monkey, plasma, im, 5 mg/dose, male, 5 mg/dose IM as PD1-Vaxx, day 1, plasma, mean as printed): 10.1 ng/mL
- AUC(0-t) ([1]; male, cynomolgus monkey, plasma, im, 5 mg/dose, male, 5 mg/dose IM as PD1-Vaxx, day 43, mean, read-out: AUC(0-t)): 3460 ng·h/mL
- Cmax ([1]; male, cynomolgus monkey, plasma, im, 5 mg/dose, male, 5 mg/dose IM as PD1-Vaxx, day 43, plasma, mean (generally n = 3)): 202 ng/mL
- Tmax ([1]; male, cynomolgus monkey, plasma, im, 5 mg/dose, read-out: Tmax): 2 h
- accumulation ratio (RA) ([1]; single female monkey, 5 mg/dose): 121
- accumulation ratio (RA) ([1]; single male monkey, 5 mg/dose): 16.3
- recognize and bind rhPD-L1 [2]: able to recognize and bind
- recognize and bind nivolumab [3]: able to recognize and bind
